Where “and” joins values, the source holds several entries; their conditions need not be identical. Equal entries are not always repeated. Entries after “also recorded” stand apart in the source; their conditions may differ.
How the values were obtained:
crows = experiment: Field trials on efficacy as a bird repellent, corn seed, plant stand counts; format: in vivo, Corvus; settings: 0.4 g/50.000 seeds with Redigo M or Maxim XL, 0.8 g/50.000 seeds stand-alone, plant stand counts 3 weeks after emergence, listed as denatonium benzoate
From the text: To evaluate the efficacy of different substances as a bird repellent, 25 locations throughout Europe have been identified with a potentially high pressure of bird damage. 17 different substances (DSM RD9103 BRP, Chili extract, Black Cumin oil, Yucca extract, Mentha pulegium extract, Aluminium-Ammonium-sulfate, Hops extract, fat encapsulated plant extracts, alginate encapsulated plant extracts, Tefluthrin, Thiram, Ziram, Methiocarb, yellow colour substance, denatonium benzoate, SatecWFO20, Redigo M, Maxim XL) have been chosen to evaluate differences on feeding behavior of crows. Three chemical references have been included in the trial: Mesurol liquid (Active substance Methiocarb), Korit (Active Substance Ziram) and TMTD (Active Substance Thiram). Mesurol liquid (Methiocarb) was the standard bird repellent in the past, with a European expiry date of the 3rd of April 2020. TMTD (Thiram) can be used until 30th of January 2020. Korit (Ziram) expires in 2021.
Denatonium benzoate has been tested in 2 different concentrations: 0.4 g/50.000 seeds in combination with standard fungicides Redigo M and Maxim XL and 0.8 g/50.000 seeds as a stand-alone. […]
3 weeks after emergence, 9 locations with bird damage have been identified. Plant stand counts have been assessed and summarized.

corn seeds = experiment: Phytotoxicity: germination rate (KF) of treated corn seeds; settings: for ΔKF: vs no Bitrex
Procedure: In order to evaluate the phytotoxicity of different corn seed treatments, safety tests were conducted. Germination rates of corn seeds treated with various concentrations of denatonium benzoate (Bitrex®) [in g per unit, where 1 unit is 50.000 seeds] were counted after five days at 25° C. Cold test germination rates (CT) were counted after 7 days at 10° C. and 5 days at 25° C. The treatments were compared to untreated seeds.
KF=germination rates counted after 5 days at 25° C. and CT=cold test germination rates counted after 7 days at 10° C. and 5 days at 25° C.

[1] = LC-MS-MS determination of Bitrex in hybrid rye seedlings; format: in vivo
Procedure: Additional experiments in hybrid rye show also excellent systemic uptake and distribution of Bitrex. Seeds of a hybrid rye variety have been treated in application A with KintoPlus 150 ml/100 kg seeds and Bitrex 75 g/100 kg seeds and in application B with KintoPlus 150 ml/100 kg seeds and Bitrex 150 g/100 kg seeds. Seeds have been sown in longitudinal plots of 15 qm in four repetitions. 3 weeks after sowing seedlings have been harvested (40 plants per plot) and leaf material and root tissue have been analyzed using Liquid Chromatography with tandem mass spectrometry (LC-MS-MS) as described above.

[2] = corn Amavit, chemical no, Bitrex 0.2 g/u
[3] = corn Amavit, chemical no, Bitrex 0.5 g/u
[4] = corn Amavit, chemical no, Bitrex 1.0 g/u
[5] = corn Amavit, chemical no, Bitrex 2.0 g/u
[6] = corn Amavit, chemical no, Bitrex 5.0 g/u
[7] = corn Amavit, with MaximXL, Bitrex 0.2 g/u
[8] = corn Amavit, with MaximXL, Bitrex 0.5 g/u
[9] = corn Amavit, with MaximXL, Bitrex 1.0 g/u
[10] = corn Amavit, with MaximXL, Bitrex 2.0 g/u
[11] = corn Amavit, with MaximXL, Bitrex 5.0 g/u
[12] = corn Amavit, with RedigoM, Bitrex 0.2 g/u
[13] = corn Amavit, with RedigoM, Bitrex 0.5 g/u
[14] = corn Amavit, with RedigoM, Bitrex 1.0 g/u
[15] = corn Amavit, with RedigoM, Bitrex 2.0 g/u
[16] = corn Amavit, with RedigoM, Bitrex 5.0 g/u
[17] = corn KXB6432, chemical no, Bitrex 0.2 g/u
[18] = corn KXB6432, chemical no, Bitrex 0.5 g/u
[19] = corn KXB6432, chemical no, Bitrex 1.0 g/u
[20] = corn KXB6432, chemical no, Bitrex 2.0 g/u
[21] = corn KXB6432, chemical no, Bitrex 5.0 g/u
[22] = corn KXB6432, with MaximXL, Bitrex 0.2 g/u
[23] = corn KXB6432, with MaximXL, Bitrex 0.5 g/u
[24] = corn KXB6432, with MaximXL, Bitrex 1.0 g/u
[25] = corn KXB6432, with MaximXL, Bitrex 2.0 g/u
[26] = corn KXB6432, with MaximXL, Bitrex 5.0 g/u
[27] = corn KXB6432, with RedigoM, Bitrex 0.2 g/u
[28] = corn KXB6432, with RedigoM, Bitrex 0.5 g/u
[29] = corn KXB6432, with RedigoM, Bitrex 1.0 g/u
[30] = corn KXB6432, with RedigoM, Bitrex 2.0 g/u
[31] = corn KXB6432, with RedigoM, Bitrex 5.0 g/u
[32] = ø of varieties and chemicals, Bitrex 0.2 g/u
[33] = ø of varieties and chemicals, Bitrex 0.5 g/u
[34] = ø of varieties and chemicals, Bitrex 1.0 g/u
[35] = ø of varieties and chemicals, Bitrex 2.0 g/u
[36] = ø of varieties and chemicals, Bitrex 5.0 g/u
[37] = ø of varieties, chemical no, Bitrex 0.2 g/u
[38] = ø of varieties, chemical no, Bitrex 0.5 g/u
[39] = ø of varieties, chemical no, Bitrex 1.0 g/u
[40] = ø of varieties, chemical no, Bitrex 2.0 g/u
[41] = ø of varieties, chemical no, Bitrex 5.0 g/u
[42] = ø of varieties, with MaximXL, Bitrex 0.2 g/u
[43] = ø of varieties, with MaximXL, Bitrex 0.5 g/u
[44] = ø of varieties, with MaximXL, Bitrex 1.0 g/u
[45] = ø of varieties, with MaximXL, Bitrex 2.0 g/u
[46] = ø of varieties, with MaximXL, Bitrex 5.0 g/u
[47] = ø of varieties, with RedigoM, Bitrex 0.2 g/u
[48] = ø of varieties, with RedigoM, Bitrex 0.5 g/u
[49] = ø of varieties, with RedigoM, Bitrex 1.0 g/u
[50] = ø of varieties, with RedigoM, Bitrex 2.0 g/u
[51] = ø of varieties, with RedigoM, Bitrex 5.0 g/u

CC[N+](CC)(CC(=O)Nc1c(C)cccc1C)Cc1ccccc1.O=C([O-])c1ccccc1 [Bitrex, N-Benzyl-2-(2,6-dimethylanilino)-N, N-diethyl-2-oxoethan-1-aminium benzoate]
efficiency as corvid repellent for corn (crows): excellent effect; also recorded: comparable or even better than the best bird repellents like Thiram, Korit and Mesurol | KF germination rate, 5 days at 25° C. (corn seeds; [2]): 98.0% | KF germination rate, 5 days at 25° C. (corn seeds; [3]): 96.5% | KF germination rate, 5 days at 25° C. (corn seeds; [4]): 97.5% | KF germination rate, 5 days at 25° C. (corn seeds; [5]): 97.0% | KF germination rate, 5 days at 25° C. (corn seeds; [6]): 98.0% | KF germination rate, 5 days at 25° C. (corn seeds; [7]): 98.0% | KF germination rate, 5 days at 25° C. (corn seeds; [8]): 98.0% | KF germination rate, 5 days at 25° C. (corn seeds; [9]): 96.5% | KF germination rate, 5 days at 25° C. (corn seeds; [10]): 95.5% | KF germination rate, 5 days at 25° C. (corn seeds; [11]): 97.5% | KF germination rate, 5 days at 25° C. (corn seeds; [12]): 100.0% | KF germination rate, 5 days at 25° C. (corn seeds; [13]): 97.5% | KF germination rate, 5 days at 25° C. (corn seeds; [14]): 96.0% | KF germination rate, 5 days at 25° C. (corn seeds; [15]): 96.5% | KF germination rate, 5 days at 25° C. (corn seeds; [16]): 99.5% | KF germination rate, 5 days at 25° C. (corn seeds; [17]): 92.5% | KF germination rate, 5 days at 25° C. (corn seeds; [18]): 96.5% | KF germination rate, 5 days at 25° C. (corn seeds; [19]): 96.5% | KF germination rate, 5 days at 25° C. (corn seeds; [20]): 96.0% | KF germination rate, 5 days at 25° C. (corn seeds; [21]): 95.5% | KF germination rate, 5 days at 25° C. (corn seeds; [22]): 98.5% | KF germination rate, 5 days at 25° C. (corn seeds; [23]): 99.0% | KF germination rate, 5 days at 25° C. (corn seeds; [24]): 97.5% | KF germination rate, 5 days at 25° C. (corn seeds; [25]): 98.0% | KF germination rate, 5 days at 25° C. (corn seeds; [26]): 97.5% | KF germination rate, 5 days at 25° C. (corn seeds; [27]): 94.5% | KF germination rate, 5 days at 25° C. (corn seeds; [28]): 95.5% | KF germination rate, 5 days at 25° C. (corn seeds; [29]): 96.0% | KF germination rate, 5 days at 25° C. (corn seeds; [30]): 95.5% | KF germination rate, 5 days at 25° C. (corn seeds; [31]): 97.0% | ΔKF (corn seeds; [2]): 0.0% | ΔKF (corn seeds; [3]): −1.5% | ΔKF (corn seeds; [4]): −0.5% | ΔKF (corn seeds; [5]): −1.0% | ΔKF (corn seeds; [6]): 0.0% | ΔKF (corn seeds; [7]): 1.5% | ΔKF (corn seeds; [8]): 1.5% | ΔKF (corn seeds; [9]): 0.0% | ΔKF (corn seeds; [10]): −1.0% | ΔKF (corn seeds; [11]): 1.0% | ΔKF (corn seeds; [12]): 2.0% | ΔKF (corn seeds; [13]): −0.5% | ΔKF (corn seeds; [14]): −2.0% | ΔKF (corn seeds; [15]): −1.5% | ΔKF (corn seeds; [16]): 1.5% | ΔKF (corn seeds; [17]): −2.0% | ΔKF (corn seeds; [18]): 2.0% | ΔKF (corn seeds; [19]): 2.0% | ΔKF (corn seeds; [20]): 1.5% | ΔKF (corn seeds; [21]): 1.0% | ΔKF (corn seeds; [22]): 0.0% | ΔKF (corn seeds; [23]): 0.5% | ΔKF (corn seeds; [24]): −1.0% | ΔKF (corn seeds; [25]): −0.5% | ΔKF (corn seeds; [26]): −1.0% | ΔKF (corn seeds; [27]): 0.0% | ΔKF (corn seeds; [28]): 1.0% | ΔKF (corn seeds; [29]): 1.5% | ΔKF (corn seeds; [30]): 1.0% | ΔKF (corn seeds; [31]): 2.5% | ΔKF (corn seeds; [32]): 0.3% | ΔKF (corn seeds; [33]): 0.5% | ΔKF (corn seeds; [34]): 0.0% | ΔKF (corn seeds; [35]): −0.2% | ΔKF (corn seeds; [36]): 0.8% | ΔKF (corn seeds; [37]): −1.0% | ΔKF (corn seeds; [38]): 0.3% | ΔKF (corn seeds; [39]): 0.8% | ΔKF (corn seeds; [40]): 0.3% | ΔKF (corn seeds; [41]): 0.5% | ΔKF (corn seeds; [42]): 0.7% | ΔKF (corn seeds; [43]): 1.0% | ΔKF (corn seeds; [44]): −0.5% | ΔKF (corn seeds; [45]): −0.7% | ΔKF (corn seeds; [46]): 0.0% | ΔKF (corn seeds; [47]): 1.0% | ΔKF (corn seeds; [48]): 0.3% | ΔKF (corn seeds; [49]): −0.2% | ΔKF (corn seeds; [50]): −0.2% | ΔKF (corn seeds; [51]): 2.0% | KF germination rate, 5 days at 25° C. (corn seeds; [32]): 96.9% | KF germination rate, 5 days at 25° C. (corn seeds; [33]): 97.2% | KF germination rate, 5 days at 25° C. (corn seeds; [34]): 96.7% | KF germination rate, 5 days at 25° C. (corn seeds; [35]): 96.4% | KF germination rate, 5 days at 25° C. (corn seeds; [36]): 97.5% | KF germination rate, 5 days at 25° C. (corn seeds; [37]): 95.3% | KF germination rate, 5 days at 25° C. (corn seeds; [38]): 96.5% | KF germination rate, 5 days at 25° C. (corn seeds; [39]): 97.0% | KF germination rate, 5 days at 25° C. (corn seeds; [40]): 96.5% | KF germination rate, 5 days at 25° C. (corn seeds; [41]): 96.8% | KF germination rate, 5 days at 25° C. (corn seeds; [42]): 98.3% | KF germination rate, 5 days at 25° C. (corn seeds; [43]): 98.5% | KF germination rate, 5 days at 25° C. (corn seeds; [44]): 97.0% | KF germination rate, 5 days at 25° C. (corn seeds; [45]): 96.8% | KF germination rate, 5 days at 25° C. (corn seeds; [46]): 97.5% | KF germination rate, 5 days at 25° C. (corn seeds; [47]): 97.3% | KF germination rate, 5 days at 25° C. (corn seeds; [48]): 96.5% | KF germination rate, 5 days at 25° C. (corn seeds; [49]): 96.0% | KF germination rate, 5 days at 25° C. (corn seeds; [50]): 96.0% | KF germination rate, 5 days at 25° C. (corn seeds; [51]): 98.3% | concentration of Bitrex in kernels ([1]; hybrid rye): up to 460,000 ng/g | Mean Bitrex concentration ([1]; hybrid rye seedlings 3 weeks after sowing, root, application B: KintoPlus 150 ml/100 kg seeds and Bitrex 150 g/100 kg seeds): 21169.7 ng/g and 25378.0 ng/g and 18336.0 ng/g and 15826.3 ng/g | Mean Bitrex concentration ([1]; hybrid rye, kernel, application A: KintoPlus 150 ml/100 kg seeds and Bitrex 75 g/100 kg seeds): 460473.8 ng/g
